Assay results taken from patent US20230382924A1, “MODULATORS OF CYSTIC FIBROSIS TRANSMEMBRANE CONDUCTANCE REGULATOR” (VERTEX PHARMACEUTICALS INCORPORATED, priority 2020, published 2023).

How the values were obtained:
[1] = molecular target: T1, CFTR (Homo sapiens, UniProt P13569); experiment: Membrane Potential Dye, Enteroid Assay B; type: cell-based; conditions: Table 9; for EC50: read-out: Ent. B EC50
Protocol: Base medium (ADF+++) consisted of Advanced DMEM/Ham's F12, 2 mM Glutamax, 10 mM HEPES, […] penicillin/streptomycin.
Bath 1 Buffer consisted of 1 mM MgCl2, 160 mM NaCl, 4.5 mM KCl, 10 mM HEPES, 10 mM Glucose, 2 mM CaCl2).
Chloride Free Buffer consisted of 1 mM Magnesium Gluconate, 2 mM Calcium Gluconate, 4.5 mM Potassium Gluconate, 160 mM Sodium Gluconate, 10 mM HEPES, 10 mM Glucose.
Bath 1 Dye Solution consisted of Bath 1 Buffer, 0.04% Pluronic F127, 20 μM Methyl Oxonol, 30 μM CaCCinh-A01, 30 μM Chicago Sky Blue.
Chloride Free Dye Solution consisted of Chloride Free Buffer, 0.04% Pluronic F127, 20 μM Methyl Oxonol, 30 μM CaCCinh-A01, 30 μM Chicago Sky Blue.
3. Enteroid Cell Harvesting and Seeding
Cells were recovered in cell recovery solution, collected by centrifugation at 650 rpm for 5 min at 4° C., resuspended in TryPLE and incubated for 5 min at 37° C. Cells were then collected by centrifugation at 650 rpm for 5 min at 4° C. and resuspended in IEMM containing 10 μM ROCK inhibitor (RI).
5. Membrane Potential Dye, Enteroid Assay B
Briefly, cells were washed 5 times in Bath 1 Buffer. Bath 1 Dye Solution was added and the cells were incubated for 25 min at room temperature. Following dye incubation, cells were washed 3 times in Chloride Free Dye Solution. Chloride transport was initiated by addition of Chloride Free Dye Stimulation Solution and the fluorescence signal was read for 15 min.

[2] = molecular target: T1, CFTR; experiment: Membrane Potential Dye, Enteroid Assay A; type: cell-based; conditions: for EC50: read-out: Ent. A EC50
Procedure, shortened: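 Signal is reported as % Activity relative to a triple CFTR modulator control (3 μM + 3 μM + 300 nM acute). Read-out: membrane potential fluorescence (20 μM methyl oxonol) monitored for 15 min after chloride-free stimulation. Dye loading took 25 min at room temperature in Bath 1 buffer containing CaCC blockers.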

T1 sequence (P13569 with tags, fused parts or gaps DEL508-508): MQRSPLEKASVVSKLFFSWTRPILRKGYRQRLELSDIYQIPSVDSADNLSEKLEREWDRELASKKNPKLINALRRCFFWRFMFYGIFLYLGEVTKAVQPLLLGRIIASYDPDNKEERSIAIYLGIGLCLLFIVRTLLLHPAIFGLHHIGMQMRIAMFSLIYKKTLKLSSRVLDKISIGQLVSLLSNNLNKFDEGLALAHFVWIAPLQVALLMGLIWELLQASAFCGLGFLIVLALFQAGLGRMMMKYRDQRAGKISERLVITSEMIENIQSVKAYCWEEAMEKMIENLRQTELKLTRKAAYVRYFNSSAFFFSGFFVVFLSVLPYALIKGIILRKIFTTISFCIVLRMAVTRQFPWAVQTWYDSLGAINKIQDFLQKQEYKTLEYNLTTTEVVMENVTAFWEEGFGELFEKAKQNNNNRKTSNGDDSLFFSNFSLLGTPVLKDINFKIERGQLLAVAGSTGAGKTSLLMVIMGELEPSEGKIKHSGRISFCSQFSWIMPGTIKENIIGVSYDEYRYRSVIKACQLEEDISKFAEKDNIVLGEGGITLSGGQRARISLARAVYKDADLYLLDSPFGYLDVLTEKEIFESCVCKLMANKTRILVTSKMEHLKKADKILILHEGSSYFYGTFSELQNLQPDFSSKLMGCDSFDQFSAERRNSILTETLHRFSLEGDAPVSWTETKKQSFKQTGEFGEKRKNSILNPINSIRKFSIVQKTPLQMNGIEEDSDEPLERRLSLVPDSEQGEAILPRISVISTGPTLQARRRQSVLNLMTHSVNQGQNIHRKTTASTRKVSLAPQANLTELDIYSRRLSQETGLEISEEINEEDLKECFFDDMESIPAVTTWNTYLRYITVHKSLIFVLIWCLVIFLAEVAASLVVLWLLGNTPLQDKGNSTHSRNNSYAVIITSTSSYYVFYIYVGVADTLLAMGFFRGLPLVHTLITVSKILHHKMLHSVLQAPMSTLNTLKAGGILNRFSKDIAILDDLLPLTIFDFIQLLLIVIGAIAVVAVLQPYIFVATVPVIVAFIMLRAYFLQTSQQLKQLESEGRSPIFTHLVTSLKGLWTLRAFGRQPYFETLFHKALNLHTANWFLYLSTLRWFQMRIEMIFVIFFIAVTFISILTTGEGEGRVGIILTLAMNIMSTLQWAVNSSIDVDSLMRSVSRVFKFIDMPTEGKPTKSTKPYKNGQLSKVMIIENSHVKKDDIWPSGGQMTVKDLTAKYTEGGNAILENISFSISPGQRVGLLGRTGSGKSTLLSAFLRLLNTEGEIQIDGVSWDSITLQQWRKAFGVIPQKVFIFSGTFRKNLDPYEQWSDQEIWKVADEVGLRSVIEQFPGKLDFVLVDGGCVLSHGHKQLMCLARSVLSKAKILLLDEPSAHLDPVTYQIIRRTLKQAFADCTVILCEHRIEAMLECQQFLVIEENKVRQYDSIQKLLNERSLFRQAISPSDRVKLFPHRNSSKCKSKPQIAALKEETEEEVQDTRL

Compound: Cc1cccc(C)c1-c1cc2nc(n1)NS(=O)(=O)c1cccc(c1)C(=O)NCc1cc(Cl)ccc1O2 [Compound 295]
- Ent. B Max Activity [1]: +++ (+++ is >60%)
- EC50 [1]: < 1000 nM

Compound: C=CCCCCC[C@@H]1COc2cc(-c3ccccc3C=C)nc(n2)NS(=O)(=O)c2cccc(c2)C(=O)N1 [Compound 220]
- Ent. B Max Activity [1]: +++ (+++ is >60%)
- EC50 [1]: < 1000 nM

Compound: O=C1N[C@@H]2CCCCCC/C=C/c3ccccc3-c3cc(nc(n3)NS(=O)(=O)c3cccc1c3)OC2 [Compound 36, (10E,18R)-30-oxa-26λ^6-thia-19,27,29,32-tetraazapentacyclo[16.11.2.13,28.121,25.04,9]tritriaconta-1,3(32),4(9),5,7,10,21(33),22,24,28-decaene-20,26,26-trione]
- Ent. B Max Activity [1]: +++ (+++ is >60%)
- EC50 [1]: < 1000 nM

Compound: Cc1cccc(C)c1-c1cc2nc(n1)NS(=O)(=O)c1cc(nn1C)C(=O)N[C@H](CC(C)(C)C)CO2 [Compound 77, (10R)-15-(2,6-Dimethylphenyl)-10-(2,2-dimethylpropyl)-5-methyl-3,3-dioxo-12-oxa-3λ^6-thia-2,5,6,9,16,17-hexazatricyclo[11.3.1.14,7]octadeca-1(17),4(18),6,13,15-pentaen-8-one]
- Ent. B Max Activity [1]: ++ (++ is 30-60%)
- EC50 [1]: 1000 to 3000 nM

Compound: O=C1N[C@@H]2CCCC/C=C/c3ccccc3-c3cc(nc(n3)NS(=O)(=O)c3cccc1c3)OC2 [Compound 219]
- Ent. B Max Activity [1]: +++ (+++ is >60%)
- EC50 [1]: < 1000 nM

Compound: Cc1cccc(C)c1-c1cc2nc(n1)NS(=O)(=O)c1cccc(c1)C(=O)NC[C@H](c1ccc(C[Si](C)(C)C)cc1)O2 (stereo in doubt) [Compound 125]
- EC50 [1]: < 1000 nM

Compound: O=C1N[C@@H]2CCCCCCc3ccccc3-c3cc(nc(n3)NS(=O)(=O)c3cccc1c3)OC2 [Compound 216]
- Ent. B Max Activity [1]: +++ (+++ is >60%)
- EC50 [1]: < 1000 nM

Compound: Cc1cccc(C=C2CCCCC2)c1-c1cc2nc(n1)NS(=O)(=O)c1cccc(c1)C(=O)N[C@H](CC(C)C)CO2 [Compound 388]
- Ent. B Max Activity [1]: ++ (++ is 30-60%)
- EC50 [1]: < 1000 nM

Compound: Cc1cccc(C)c1-c1cc2nc(n1)NS(=O)(=O)c1cccc(c1)C(=O)N[C@H](CC(C)(C)O)CO2 [Compound 65]
- Ent. B Max Activity [1]: ++ (++ is 30-60%)
- EC50 [1]: 3000 to 30000 nM

Compound: Cc1cccc(C)c1-c1cc2nc(n1)NS(=O)(=O)c1cccc(c1)C(=O)NCC1(CCN(C(=O)C3CCCCN3Cc3ccc(F)cc3)CC1)CO2 (centres unmarked) [Compound 456]
- Ent. A Max Activity ([2]; Enteroid Assay A): ++ (++ is 30-60%)
- EC50 ([2]; Enteroid Assay A): 3000 to 30000 nM

Compound: Cc1cccc(C)c1-c1cc2nc(n1)NS(=O)(=O)c1cccc(c1)C(=O)NCC(c1ccc(Br)cc1)O2 (single isomer, unassigned) [Compound 19, 10-(4-bromophenyl)-6-(2,6-dimethylphenyl)-2,2-dioxo-9-oxa-2λ^6-thia-3,5,12,19-tetrazatricyclo[12.3.1.14,8]nonadeca-1(18),4(19),5,7,14,16-hexaen-13-one]
- Ent. A Max Activity ([2]; Table 8): + (+ is <30%)

Compound: Cc1cccc(C)c1-c1cc2nc(n1)NS(=O)(=O)c1cccc(c1)C(=O)N[C@@H]1CN(C3CC4(CCCCC4)C3)CC[C@H]1O2 [Compound 60, (3R,8R)-20-(2,6-Dimethylphenyl)-6-{spiro[3.5]nonan-2-yl}-2-oxa-16λ^6-thia-6,9,17,19,22-pentaazatetracyclo[16.3.1.111,15.03,8]tricosa-1(21),11,13,15(23),18(22),19-hexaene-10,16,16-trione]
- Ent. A Max Activity ([2]; Table 9): +++ (+++ is >60%)
- EC50 ([2]; Table 9): < 1000 nM

Compound: CC(C)C[C@@H]1COc2cc(C3=CCC(C)(C)CC3)nc(n2)NS(=O)(=O)c2cccc(c2)C(=O)N1 [Compound 323]
- Ent. A Max Activity ([2]; Enteroid Assay A): ++ (++ is 30-60%)
- EC50 ([2]; Enteroid Assay A): 1000 to 3000 nM

Compound: Cc1cccc(C)c1-c1cc2nc(n1)NS(=O)(=O)c1cccc(c1)C(=O)NC(CCC1(C(F)(F)F)CC1)CO2 (centres unmarked) [Compound 92, 6-(2,6-dimethylphenyl)-2,2-dioxo-11-[2-[1-(trifluoromethyl)cyclopropyl]ethyl]-9-oxa-2λ^6-thia-3,5,12,19-tetrazatricyclo[12.3.1.14,8]nonadeca-1(18),4(19),5,7,14,16-hexaen-13-one]
- Ent. A Max Activity ([2]; Table 8): +++ (+++ is >60%)
- EC50 ([2]; Table 8): < 1000 nM

Compound: Cc1cccc(C)c1-c1cc2nc(n1)NS(=O)(=O)c1cccc(c1)C(=O)N[C@@H](C(CC(C)C)c1ccccc1)CO2 (stereo in doubt) [Compound 182]
- Ent. A Max Activity ([2]; Table 9): ++ (++ is 30-60%)
- EC50 ([2]; Table 9): < 1000 nM

Compound: Cc1cccc(C)c1-c1cc2nc(n1)NS(=O)(=O)c1cccc(c1)C(=O)NCC1(CCN(C(=O)c3cc4c(cc3O)CCCC4)CC1)CO2 [Compound 462]
- Ent. A Max Activity ([2]; Enteroid Assay A): ++ (++ is 30-60%)

Compound: Cc1cccc(C)c1-c1cc2nc(n1)NS(=O)(=O)c1cccc(c1)C(=O)NCC(c1ccc(/C=C/C(C)(C)C)cc1)O2 (centres unmarked) [Compound 23, 10-[4-[(E)-3,3-Dimethylbut-1-enyl]phenyl]-6-(2,6-dimethylphenyl)-2,2-dioxo-9-oxa-2λ^6-thia-3,5,12,19-tetrazatricyclo[12.3.1.14,8]nonadeca-1(18),4(19),5,7,14,16-hexaen-13-one]
- Ent. A Max Activity ([2]; Table 9): +++ (+++ is >60%)
- EC50 ([2]; Table 9): < 1000 nM

Compound: CC(C)C[C@@H]1COc2cc(-c3ccccc3C3CC3)nc(n2)NS(=O)(=O)c2cccc(c2)C(=O)N1 [Compound 105, (11R)-6-(2-cyclopropylphenyl)-11-(2-methylpropyl)-9-oxa-2λ^6-thia-3,5,12,19-tetraazatricyclo[12.3.1.14,8]nonadeca-1(17),4(19),5,7,14(18),15-hexaene-2,2,13-trione]
- Ent. A Max Activity ([2]; Enteroid Assay A): +++ (+++ is >600%)
- EC50 ([2]; Enteroid Assay A): < 1000 nM

Compound: Cc1cccc(C)c1-c1cc2nc(n1)NS(=O)(=O)c1cccc(c1)C(=O)NC[C@@H](c1ccc(C(C)(C)C(F)(F)F)cc1)O2 [Compound 256]
- Ent. A Max Activity ([2]; Table 9): +++ (+++ is >60%)
- EC50 ([2]; Table 9): < 1000 nM

Compound: CCC(CC)(CC)c1ccc(C2CNC(=O)c3cccc(c3)S(=O)(=O)Nc3nc(cc(-c4c(C)cccc4C)n3)O2)cc1 (centres unmarked) [Compound 266]
- Ent. A Max Activity ([2]; Table 9): ++ (++ is 30-60%)
- EC50 ([2]; Table 9): < 1000 nM

Compound: CC(C)C[C@@H]1COc2cc(C3=CCC(C)CC3)nc(n2)NS(=O)(=O)c2cccc(c2)C(=O)N1 (some centres unmarked) [Compound 324]
- Ent. A Max Activity ([2]; Enteroid Assay A): ++ (++ is 30-60%)
- EC50 ([2]; Enteroid Assay A): 1000 to 3000 nM

Compound: Cc1cccc(C)c1-c1cc2nc(n1)NS(=O)(=O)c1cccc(c1)C(=O)NCC(Cc1ccc(C(C)(C)C)cc1)O2 (centres unmarked) [Compound 242]
- EC50 ([2]; Table 8): < 1000 nM

Compound: Cc1cccc(C)c1-c1cc2nc(n1)NS(=O)(=O)c1cccc(c1)C(=O)NC(C)(C)CO2 [Compound 348]
- Ent. A Max Activity ([2]; Enteroid Assay A): +++ (+++ is >600%)
- EC50 ([2]; Enteroid Assay A): 3000 to 30000 nM

Compound: Cc1cccc(C)c1-c1cc2nc(n1)NS(=O)(=O)c1cccc(c1)C(=O)NC[C@@H](c1ccccn1)O2 [Compound 232]
- Ent. A Max Activity ([2]; Table 8): + (+ is <30%)

Compound: Cc1cccc(C)c1-c1cc2nc(n1)NS(=O)(=O)c1cccc(c1)C(=O)NCC(Cc1ccc(C(C)(C)C)cc1)O2 (centres unmarked) [Compound 243]
- Ent. A Max Activity ([2]; Table 8): +++ (+++ is >60%)
- EC50 ([2]; Table 8): < 1000 nM

Compound: Cc1cccc(C)c1-c1cc2nc(n1)NS(=O)(=O)c1cccc(c1)C(=O)NCC(c1ccc(C3CCC3)cc1)O2 (centres unmarked) [Compound 12, 10-(4-Cyclobutylphenyl)-6-(2,6-dimethylphenyl)-2,2-dioxo-9-oxa-2λ^6-thia-3,5,12,19-tetrazatricyclo[12.3.1.14,8]nonadeca-1(18),4(19),5,7,14,16-hexaen-13-one]
- Ent. A Max Activity ([2]; Table 9): +++ (+++ is >60%)
- EC50 ([2]; Table 9): < 1000 nM

Compound: Cc1cccc(C)c1-c1cc2nc(n1)NS(=O)(=O)c1cccc(c1)C(=O)NC[C@@H](c1ccc(C(C)(C)C)cn1)O2 (single isomer, unassigned) [Compound 8, 10-(5-tert-butyl-2-pyridyl)-6-(2,6-dimethylphenyl)-2,2-dioxo-9-oxa-2λ^6-thia-3,5,12,19-tetrazatricyclo[12.3.1.14,8]nonadeca-1(18),4(19),5,7,14,16-hexaen-13-one]
- Ent. A Max Activity ([2]; Table 8): + (+ is <30%)

Compound: Cc1cccc(C)c1-c1cc2nc(n1)NS(=O)(=O)c1cccc(c1)C(=O)N[C@H](C)[C@H](c1ccc(C(C)(C)C)cc1)O2 [Compound 134]
- Ent. A Max Activity ([2]; Table 8): + (+ is <30%)
- EC50 ([2]; Table 8): < 1000 nM

Compound: Cc1cccc(C)c1-c1cc2nc(n1)NS(=O)(=O)c1cccc(c1)C(=O)NC(C(=O)NC(C)(C)C)CO2 (centres unmarked) [Compound 66, N-tert-butyl-6-(2,6-dimethylphenyl)-2,2,13-trioxo-9-oxa-2λ^6-thia-3,5,12,19-tetrazatricyclo[12.3.1.14,8]nonadeca-1(18),4(19),5,7,14,16-hexaene-11-carboxamide]
- Ent. A Max Activity ([2]; Table 8): + (+ is <30%)

Compound: Cc1ccccc1[C@@H]1CNC(=O)c2cccc(c2)S(=O)(=O)Nc2nc(cc(-c3c(C)cccc3C)n2)O1 [Compound 276]
- EC50 ([2]; Table 8): < 1000 nM

Compound: Cc1cccc(C)c1-c1cc2nc(n1)NS(=O)(=O)c1cccc(c1)C(=O)NCC(c1ccc(-c3ccccc3)cc1)O2 (centres unmarked) [Compound 231]
- EC50 ([2]; Table 8): < 1000 nM
